The values below come from patent US5610038A, “Thiangazole, its preparation, compositions and use thereof” (Ciba-Geigy Corporation, priority 1990, dated 1997).

Assay [1] concerns Ustilago maydis. The assay is described as follows: MIC, agar diffusion test / series dilution test. Format: cell-based. The following applies: Mycosarcoma maydis. How it is done: (§1) The antibiotic activity is determined by means of an agar diffusion test with reference to the inhibiting areola diameter, or from the culture density in a series dilution test.
In general terms: Agar diffusion results depend on both activity and mobility in agar.

Assay [2] deals with Heliothis virescens. The assay can be described thus: F.7. Ovicidal/larvicidal action against Heliothis virescens. Format: in vivo. The following applies: 400 ppm, egg deposits on cotton, 8 days. As for the experimental part:
F.7. Ovicidal/larvicidal action against Heliothis virescens
Egg deposits of Heliothis virescens on cotton are sprayed with an aqueous emulsion comprising 400 ppm of test compound. 8 days later, the percentage of eggs which have hatched and the survival rate of the caterpillars are evaluated in comparison with untreated controls (% reduction in the population).

The test system of assay [3] is Fasciola hepatica. The assay can be described thus: F.6. Trial with sheep infested with Fasciola hepatica. The assay is classed as in vivo. Conditions: doses of less than 50 mg of active ingredient/kg of body weight, single dose. As for the experimental part:
F.6. Trial with sheep infested with Fasciola hepatica
The active ingredient is administered in the form of a suspension using a stomach probe or by intraruminal injection to sheep that have previously been artificially infested with Fasciola hepatica. 3 animals am used for each dose per trial. Each animal is treated only once with a single dose.
(§2) A first evaluation is made by comparing the number of worm eggs excreted in the faeces of the sheep before and after treatment.
Three to four weeks after treatment the sheep are sacrificed and dissected. The evaluation is carried out by counting the liver flukes remaining in the gall-bladder ducts after treatment. Sheep simultaneously and similarly infested but untreated are used as a control or comparison. The difference in the number of liver flukes counted in the two groups gives the degree of effectiveness of the test compound.

For assay [4], the system named is Rhizopus arrhizus. The assay is described as follows: Antibiotic activity, agar diffusion test / series dilution test. The assay is classed as cell-based. As for the experimental part:
as §1

The test system of assay [5] is Pythium debaryanum. The assay is described as above. The assay is classed as cell-based. As for the experimental part:
as §1

In assay [6] the test system is Botrytis cinerea. The description is as above. The assay is classed as cell-based. How it is done: as §1
For assay [7], the system named is Gibberella fujikuroi. The description is as above. The assay is classed as cell-based. How it is done:
as §1

The test system of assay [8] is Mucor hiemalis. Described as above. The assay is classed as cell-based. As for the experimental part: as §1
Assay [9] has as its system cestodes such as Moniezia benedeni. The assay is described as follows: F.2. Trial with sheep infested with cestodes. The assay is classed as in vivo. The following applies: dose of less than 20 mg/kg body weight, single dose. How it is done: F.2. Trial with sheep infested wtih cestodes such as Moniezia benedeni
The active ingredient is administered in the form of a suspension using a stomach probe or by intraruminal injection to sheep that have previously been artificially infested with cestodes, such as Moniezia benedeni. 1 to 3 animals are used for each dose per trial. Each sheep is treated only once with a single dose. Seven to ten days after treatment the sheep are sacrificed and dissected. The evaluation is carded out by counting the worms remaining in the intestine after the treatment. Sheep simultaneously and similarly infested but untreated are used as a control or comparison. In this test thiangazole effects an approximately 90% reduction in cestode infestation at a dose of less than 20 mg/kg body weight.

Assay [10] concerns Tetranychus urticae. The assay can be described thus: F.9 Action against Tetranychus urticae. The assay is classed as in vivo. Conditions: 144 h, bean plants, 6 days at 25° C., read-out: activity (percentage reduction in the population). As for the experimental part: F.9 Action against Tetranychus urticae
Young bean plants are populated with a mixed population of Tetranychus urticae and sprayed one day later with an aqueous emulsion comprising 400 ppm of the test compound. The plants are then incubated for 6 days at 25° C. and then evaluated. The percentage reduction in the population (% activity) is determined by comparing the number of dead eggs, larvae and adults on the treated plants with that on untreated plants.

The subject of assay [11] is Dermanyssus gallinae. The assay is described as follows: F.3. Action against Dermanyssus gallinae. The assay is classed as in vivo. The following applies: 72 h, after 3 days, read-out: activity (mortality of the mites). As for the experimental part:
F.3. Action against Dermanyssus gallinae
2 to 3 ml of a solution comprising 100 ppm of test compound, and approximately 200 mites at various stages of development, are placed in a glass container that is open at the top. The container is then closed with a cotton wool plug, shaken for 10 minutes until the mites are completely wetted, and then inverted for a short time so that the remaining test solution can be absorbed by the cotton wool. After 3 days, the mortality of the mites is determined as a percentage by counting the number of dead individuals.

Assay [12] concerns nematodes such as Haemonchus contortus and Trichostrongylus colubriformis. The assay can be described thus: F.1. Trial with sheep infested with nematodes. The assay is classed as in vivo. Conditions: single dose. As for the experimental part:
F.1. Trial with sheep infested with nematodes such as Haemonchus contortus and Trichostrongylus colubriformis
Thiangazole is administered in the form of a suspension using a stomach probe or by intraruminal injection to sheep that have previously been artificially infested with nematodes, such as Haemonchus contortus and Trichostrongylus colubriformis. 1 to 3 animals are used for each dose per trial. Each sheep is treated only once with a single dose.
as §2
Seven to ten days after treatment the sheep are sacrificed and dissected. The evaluation is carded out by counting the worms remaining in the intestine after the treatment. Sheep simultaneously and similarly infested but untreated are used as a control or comparison.

The subject of assay [13] is Aphis craccivora. The assay is described as follows: F.8. Action against Aphis craccivora. Conditions: pea seedlings, 3 and 6 days, read-out: activity (percentage reduction in the population). Format: in vivo. As for the experimental part:
F.8. Action against Aphis craccivora
Pea seedlings are infested with Aphis craccivora and then sprayed with a spray mixture comprising 400 ppm of the test compound, and incubated at 20° C. Evaluation is made 3 and 6 days later. The percentage reduction in the population (% activity) is determined by comparing the number of dead aphids on the treated plants with that on untreated plants.

Assay [14] has as its system Plutella xylostella caterpillars. The assay is described as follows: F.11. Action against Plutella xylostella caterpillars. Format: in vivo. The following applies: cabbage plants, third-stage caterpillars, 3 days. As for the experimental part:
F. 11. Action against Plutella xylostella caterpillars
Young cabbage plants are sprayed with an aqueous emulsion comprising 400 ppm of the test compound. After the spray coating has dried, the cabbage plants are populated with 10 Plutella xylostella caterpillars in the third stage and placed in a plastics container. Evaluation is made 3 days later. The percentage reduction in the population or the percentage reduction in feeding damage (% activity) is determined by comparing the number of dead caterpillars and the feeding damage on the treated plants with that on untreated plants. […] The activity is over 80%.

The test system of assay [15] is sub-mitochondrial particles of deer heart. The assay is described as follows: NADH oxidation in sub-mitochondrial particles. The assay is classed as biochemical.
The test system of assay [16] is Lucilia cuprina. The assay is described as follows: F.5. Action against Lucilia cuprina. The following applies: test solution comprising 16 ppm, evaluation after 96 hours. The assay is classed as in vivo. How it is done: F.5. Action against Lucilia cuprina Freshly deposited eggs of the blow fly species Lucilia cuprina are introduced in small portions (30-50 eggs) into test tubes in which 4 ml of nutrient medium have previously been mixed with 1 ml of test solution comprising 16 ppm of the test compound. After inoculation of the culture medium the test tubes are closed with a cotton wool plug and incubated in an incubator at 30° C. for four days. By this time, larvae approximately 1 cm long (stage 3) have developed in the untreated medium. If a compound is active the larvae are at this time either dead or clearly retarded. Evaluation is effected after 96 hours.

The test system of assay [17] is Lucille sericata. The assay is described as follows: F.4. Action against Lucille sericata. The assay is classed as in vivo. Conditions: 10-0.01 ppm, eggs/larvae, 30° C., four days. As for the experimental part:
F.4. Action against Lucille sericata
Freshly deposited eggs of the blow fly Lucille sericata are introduced in small portions (30-50 eggs) into test tubes in which 4 ml of nutrient medium have previously been mixed with 1 ml of test solution in the intermediate dilution required for the final concentration. After inoculation of the culture medium the test tubes are closed with a cotton wool plug and incubated in an incubator at 30° C. for four days. By this time, larvae approximately 1 cm long (stage 3) have developed in the medium that, for comparison, has not been treated. If a compound is active, the larvae are at this time either dead or moribund and clearly retarded. The test is carried out simultaneously at concentrations of from 10-0.01 ppm. The activity is measured at the lowest fully active concentration (LC 100). The test includes both compounds that are effective by contact and those that are effective as an ingested poison. Repellence is also taken into account, since the larvae migrate from the medium and starve.

For assay [18], the system named is Heliothis virescens caterpillars. The assay is described as follows: F.10. Action against Heliothis virescens caterpillars. The assay is classed as in vivo. Conditions: 400 ppm, soybean plants, first-stage caterpillars, 6 days. As for the experimental part: F. 10. Action against Heliothis virescens caterpillars
Young soybean plants are sprayed with an aqueous emulsion comprising 400 ppm of the test compound. After the spray coating has dried, the soybean plants are populated with 10 Heliothis virescens caterpillars in the first stage and placed in a plastics container. Evaluation is made 6 days later. The percentage reduction in the population or the percentage reduction in feeding damage(% activity) is determined by comparing the number of dead caterpillars and the feeding damage on the treated plants with that on untreated plants.

Assay [19] has as its system benzimidazole-resistant nematodes. Conditions: ruminants, doses tolerated by the host animal; cited from earlier work.
In assay [20] the test system is adult liver flukes. Conditions: ruminants, doses tolerated by the host animal; cited from earlier work.

In brackets after ≈: the same amount, converted by molar mass.

Consider `CNC(=O)c1nc(C2(C)CSC(C3(C)CSC(C4(C)CSC(C=Cc5ccccc5)=N4)=N3)=N2)oc1C` (stereo not shown) [Thiangazole, thiangazole], for which, in [1], the MIC (as a rule, the smallest concentration in the dilution series that meets the test's criterion for growth inhibition) came out at 3.2 µg/mL (≈ 5.93 µM). The “ovicidal/larvicidal activity (% reduction in the population)” value in assay [2] is “good activity (The good pesticidal activity of the compounds of formulae I and Ia according to the invention corresponds to a mortality of at least 50-60% of the mentioned pests)”. Besides, in [3], the “activity against Fasciola hepatica (liver flukes remaining)” value is “good activity”. Moreover, the “growth inhibition of fungus” value in [4], in [5], in [6], in [7] and in assay [8] was “inhibits the growth” throughout. Moreover, the “reduction in cestode infestation” value in [9] was “approximately 90%”. Also, the mortality at 400 ppm in assay [10] and in [13] was no less than 50% throughout. Besides, the mortality at 100 ppm in [11] is no less than 50%. In addition, the “reduction of nematode infestation” value in assay [12] (20 mg of active ingredient per kg of body weight) is “virtually complete reduction”. For the same molecule, the “reduction in nematode infestation” value in assay [12] (stomach probe or intraruminal injection) is “sharp reduction in nematode infestation”. Further, the “activity (reduction in the population or in feeding damage)” value in assay [14] (400 ppm) was “good activity (The good pesticidal activity of the compounds of formulae I and Ia according to the invention corresponds to a mortality of at least 50-60% of the mentioned pests)”; in [18], “very good activity”. The activity at 400 ppm in [14] (Plutella xylostella, 72 h, read-out: % activity (reduction in the population or in feeding damage)) is greater than 80%. Besides, in assay [15], the “inhibition of NADH oxidation” value is “inhibits NADH oxidation”. Further, the activity against larvae entry in [16] is on record as “very good activity”. Moreover, the “activity at lowest fully active concentration (LC 100)” value in assay [17] was “full activity even at low concentrations”.
For `CCCSc1ccc2nc(NC(=O)OC)[nH]c2c1` [Albendazole], the anthelmintic activity entry in [19] and in assay [20] was “totally inadequate” each time.
